How the values were obtained:
Progesterone receptor = target: T1, Progesterone receptor (Bos taurus, UniProt Q690N0); test: DRUGMATRIX: Progesterone radioligand binding (ligand: [3H] R-5020); assay type: tissue-based, Uterus; settings: Not Active = under 50% inhibition at 10 µM
T1 sequence (Q690N0 whole entry): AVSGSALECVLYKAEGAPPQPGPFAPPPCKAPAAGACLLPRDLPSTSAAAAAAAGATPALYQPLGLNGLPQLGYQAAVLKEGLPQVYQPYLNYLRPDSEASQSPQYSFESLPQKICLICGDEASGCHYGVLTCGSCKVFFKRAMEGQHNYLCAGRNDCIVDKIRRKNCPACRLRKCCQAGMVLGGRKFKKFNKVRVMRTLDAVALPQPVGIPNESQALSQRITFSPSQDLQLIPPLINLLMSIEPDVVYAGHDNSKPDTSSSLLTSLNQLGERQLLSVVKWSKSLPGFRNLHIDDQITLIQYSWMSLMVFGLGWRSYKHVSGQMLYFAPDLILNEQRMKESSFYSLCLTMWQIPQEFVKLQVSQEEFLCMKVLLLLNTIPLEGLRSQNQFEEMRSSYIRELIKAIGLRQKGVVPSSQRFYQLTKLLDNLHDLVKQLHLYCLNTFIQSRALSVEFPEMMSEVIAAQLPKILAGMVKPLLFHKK

Vasopressin V1a receptor = Vasopressin V1a receptor (Homo sapiens, UniProt P37288); assay type: cell membranes, Membrane; settings: hek293; further: in other assays of this panel Not Active means under 50% inhibition at 10 µM
Vasopressin V1a receptor, sequence (P37288 whole entry): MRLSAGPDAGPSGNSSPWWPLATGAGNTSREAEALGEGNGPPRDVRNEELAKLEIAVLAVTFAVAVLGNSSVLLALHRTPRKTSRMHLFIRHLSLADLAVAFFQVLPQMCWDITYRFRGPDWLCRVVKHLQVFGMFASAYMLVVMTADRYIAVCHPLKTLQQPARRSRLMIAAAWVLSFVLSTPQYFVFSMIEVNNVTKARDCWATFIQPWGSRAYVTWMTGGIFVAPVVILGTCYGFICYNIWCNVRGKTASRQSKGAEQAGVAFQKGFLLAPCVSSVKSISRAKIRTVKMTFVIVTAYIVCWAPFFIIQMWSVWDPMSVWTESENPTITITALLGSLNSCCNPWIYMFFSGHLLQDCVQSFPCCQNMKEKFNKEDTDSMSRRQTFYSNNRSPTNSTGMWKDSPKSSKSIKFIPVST

Cytochrome P450 3A4 = Cytochrome P450 3A4 (Homo sapiens, UniProt P08684); settings: bti-tn-5b1-4; further: in other assays of this panel Not Active means under 50% inhibition at 10 µM
Cytochrome P450 3A4, sequence (P08684 whole entry): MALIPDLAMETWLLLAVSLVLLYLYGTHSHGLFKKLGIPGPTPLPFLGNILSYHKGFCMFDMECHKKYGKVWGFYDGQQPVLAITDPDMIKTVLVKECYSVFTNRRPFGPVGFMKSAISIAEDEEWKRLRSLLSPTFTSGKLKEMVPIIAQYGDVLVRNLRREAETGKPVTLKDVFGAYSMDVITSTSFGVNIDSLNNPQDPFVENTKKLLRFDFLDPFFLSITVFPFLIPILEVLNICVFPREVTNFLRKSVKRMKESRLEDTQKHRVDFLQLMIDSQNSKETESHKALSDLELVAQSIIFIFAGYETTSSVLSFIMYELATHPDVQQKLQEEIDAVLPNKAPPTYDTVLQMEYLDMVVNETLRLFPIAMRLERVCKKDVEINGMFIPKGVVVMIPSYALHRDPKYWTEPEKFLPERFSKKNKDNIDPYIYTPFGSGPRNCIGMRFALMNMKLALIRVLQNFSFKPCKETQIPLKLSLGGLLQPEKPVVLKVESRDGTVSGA

Melanocortin receptor 4 = Melanocortin receptor 4 (Homo sapiens, UniProt P32245); assay type: cell membranes, HEK293, Membrane; settings: hek293; further: in other assays of this panel Not Active means under 50% inhibition at 10 µM
Melanocortin receptor 4, sequence (P32245 whole entry): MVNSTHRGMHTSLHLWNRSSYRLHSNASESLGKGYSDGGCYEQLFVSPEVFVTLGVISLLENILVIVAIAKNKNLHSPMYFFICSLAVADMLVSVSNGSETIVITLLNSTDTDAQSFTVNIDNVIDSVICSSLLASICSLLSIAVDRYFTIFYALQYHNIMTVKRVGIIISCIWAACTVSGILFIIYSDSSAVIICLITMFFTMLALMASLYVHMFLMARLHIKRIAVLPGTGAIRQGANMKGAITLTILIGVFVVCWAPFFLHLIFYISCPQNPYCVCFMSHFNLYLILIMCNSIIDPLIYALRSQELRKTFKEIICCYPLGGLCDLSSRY

[1] = target: 5-hydroxytryptamine receptor 6 (Homo sapiens, UniProt P50406); assay type: cell membranes, HeLa, Membrane; settings: hela; further: in other assays of this panel Not Active means under 50% inhibition at 10 µM
5-hydroxytryptamine receptor 6, sequence (P50406 whole entry): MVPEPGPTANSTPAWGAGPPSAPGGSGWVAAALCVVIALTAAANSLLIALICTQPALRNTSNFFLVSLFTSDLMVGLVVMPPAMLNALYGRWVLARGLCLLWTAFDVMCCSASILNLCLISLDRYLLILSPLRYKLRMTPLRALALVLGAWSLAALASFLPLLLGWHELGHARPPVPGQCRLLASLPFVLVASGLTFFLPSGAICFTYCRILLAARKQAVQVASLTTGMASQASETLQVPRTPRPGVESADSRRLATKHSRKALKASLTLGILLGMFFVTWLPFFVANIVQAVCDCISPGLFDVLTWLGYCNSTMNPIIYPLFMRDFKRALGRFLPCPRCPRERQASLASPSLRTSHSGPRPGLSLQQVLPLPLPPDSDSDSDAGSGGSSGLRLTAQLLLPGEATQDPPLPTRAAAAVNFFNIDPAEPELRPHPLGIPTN

[2] = target: Matrix metalloproteinase-9 (Homo sapiens, UniProt P14780); test: biochemical; assay type: cell-based
Matrix metalloproteinase-9, sequence (P14780 whole entry): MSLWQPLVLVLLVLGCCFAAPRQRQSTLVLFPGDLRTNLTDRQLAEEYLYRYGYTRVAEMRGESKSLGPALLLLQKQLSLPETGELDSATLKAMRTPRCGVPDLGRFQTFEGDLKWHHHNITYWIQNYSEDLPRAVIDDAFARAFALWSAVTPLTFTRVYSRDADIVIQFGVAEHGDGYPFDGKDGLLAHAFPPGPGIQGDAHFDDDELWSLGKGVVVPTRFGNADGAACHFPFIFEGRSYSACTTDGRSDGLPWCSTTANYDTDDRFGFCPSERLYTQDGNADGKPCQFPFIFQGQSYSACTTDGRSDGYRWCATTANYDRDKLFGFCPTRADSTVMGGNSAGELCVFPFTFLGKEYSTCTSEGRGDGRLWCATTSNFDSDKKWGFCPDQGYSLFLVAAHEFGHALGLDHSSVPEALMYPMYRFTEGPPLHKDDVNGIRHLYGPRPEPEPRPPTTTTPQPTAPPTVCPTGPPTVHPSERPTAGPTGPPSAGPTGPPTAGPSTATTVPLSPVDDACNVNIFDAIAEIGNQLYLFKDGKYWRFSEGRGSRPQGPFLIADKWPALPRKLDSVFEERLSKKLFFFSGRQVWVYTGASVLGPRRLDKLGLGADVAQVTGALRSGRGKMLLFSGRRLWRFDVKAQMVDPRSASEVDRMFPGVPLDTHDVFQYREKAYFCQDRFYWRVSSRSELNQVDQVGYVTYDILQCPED

Cn1c(=O)c2nc[nH]c2n(C)c1=O.O [THEOPHYLLINE]
Not Active: IC50 (Progesterone receptor) | IC50 (Vasopressin V1a receptor) | IC50 (Cytochrome P450 3A4) | Ki (Cytochrome P450 3A4) | IC50 (Melanocortin receptor 4) | IC50 [1] | IC50 [2]

CS(=O)(=O)c1ccc([C@@H](O)[C@@H](CO)NC(=O)C(Cl)Cl)cc1 [THIAMPHENICOL]
Not Active: IC50 (Progesterone receptor) | IC50 (Vasopressin V1a receptor) | IC50 (Cytochrome P450 3A4) | Ki (Cytochrome P450 3A4) | IC50 (Melanocortin receptor 4) | IC50 [1] | IC50 [2]

CCN(CC)CCNC(=O)c1cc(S(C)(=O)=O)ccc1OC [TIAPRIDE]
Not Active: IC50 (Progesterone receptor) | IC50 (Vasopressin V1a receptor) | IC50 (Cytochrome P450 3A4) | Ki (Cytochrome P450 3A4) | IC50 (Melanocortin receptor 4) | IC50 [1] | IC50 [2]

Clc1ccccc1CN1CCc2sccc2C1 [TICLOPIDINE]
Not Active: IC50 (Progesterone receptor) | IC50 (Vasopressin V1a receptor) | IC50 (Cytochrome P450 3A4) | Ki (Cytochrome P450 3A4) | IC50 (Melanocortin receptor 4) | IC50 [1] | IC50 [2]

NC1CCN(c2nc3c(cc2F)c(=O)c(C(=O)O)cn3-c2ccc(F)cc2F)C1 (stereo not drawn) [TOSUFLOXACIN]
Not Active: IC50 (Progesterone receptor) | IC50 (Vasopressin V1a receptor) | IC50 (Cytochrome P450 3A4) | Ki (Cytochrome P450 3A4) | IC50 (Melanocortin receptor 4) | IC50 [1] | IC50 [2]

O=C(Nc1ccc(Br)cc1)c1cc(Br)cc(Br)c1O [TRIBROMSALAN]
Not Active: IC50 (Progesterone receptor) | IC50 (Vasopressin V1a receptor) | IC50 (Cytochrome P450 3A4) | Ki (Cytochrome P450 3A4) | IC50 (Melanocortin receptor 4) | IC50 [1] | IC50 [2]

CC(c1cc2ccccc2s1)N(O)C(N)=O (stereo not drawn) [ZILEUTON]
Not Active: IC50 (Progesterone receptor) | IC50 (Vasopressin V1a receptor) | IC50 (Cytochrome P450 3A4) | Ki (Cytochrome P450 3A4) | IC50 (Melanocortin receptor 4) | IC50 [1] | IC50 [2]

MANGANESE CHLORIDE ANHYDROUS
Not Active: IC50 (Progesterone receptor) | Ki (Progesterone receptor) | IC50 (Vasopressin V1a receptor) | Ki (Vasopressin V1a receptor) | IC50 (Cytochrome P450 3A4) | Ki (Cytochrome P450 3A4) | IC50 (Melanocortin receptor 4) | Ki (Melanocortin receptor 4) | IC50 [1] | Ki [1] | IC50 [2] | Ki [2]

SODIUM ORTHOVANAD
Not Active: IC50 (Progesterone receptor) | Ki (Progesterone receptor) | IC50 (Vasopressin V1a receptor) | Ki (Vasopressin V1a receptor) | IC50 (Cytochrome P450 3A4) | Ki (Cytochrome P450 3A4) | IC50 (Melanocortin receptor 4) | Ki (Melanocortin receptor 4) | IC50 [1] | Ki [1] | IC50 [2] | Ki [2]

From ChEMBL document CHEMBL1909046, “DrugMatrix in vitro pharmacology data”
